Experimental data: ChEMBL document CHEMBL3885861, “Open TG-GATES”

Species: Rattus norvegicus
Experiment: Open TG-GATES - Regimen: Single
Assay type: toxicity, organism-based, Sprague-Dawley
Parameters: regimen Single, gender Male, age 6 weeks
Conditions: in vivo, po, 100 mg/kg, route gavage, dose level Low; for APTT / Bas / Eos / Fbg / Hb / Ht / Lym / MCH / MCHC / MCV / Mono / Neu / PT / Plat / RBC / Ret / WBC: tissue Blood; for KIDNEY_L / KIDNEY_R / KIDNEY_TOTAL: tissue Kidney; for LIVER: tissue Liver; for A/G / ALP / ALT / AST / BUN / CRE / Ca / Cl / DBIL / GLC / IP / K / LDH / Na / PL / RALB / TBIL / TC / TG / TP / gamma-GTP: tissue Plasma

With CN(C)[C@@H]1C(O)=C(C(N)=O)C(=O)[C@@]2(O)C(O)=C3C(=O)c4c(O)cccc4[C@@](C)(O)[C@H]3C[C@@H]12 [TETRACYCLINE] the TERMINAL_BW (3 h) was 185.7 g, the APTT (3 h) was 16.7 s and the Bas (3 h) was 0%. The Eos (3 h) was 0.8%, the Fbg (3 h) was 197.8 mg/dL and the Hb (3 h) was 12.8 g/dL. The Ht (3 h) was 38.5%, the Lym (3 h) was 84.2% and the MCH (3 h) was 21.8 pg. The MCHC (3 h) was 33.2%, the MCV (3 h) was 65.7 fL and the Mono (3 h) was 6.4%. For the same molecule, the Neu (3 h) was 9.2%, the PT (3 h) was 12.1 s and the Plat (3 h) was 98.5 x10_4/uL. It also gave an RBC (3 h) of 586.6 x10_4/ul, a Ret (3 h) of 9.8% and a WBC (3 h) of 101.6 x10_2/uL. For the same molecule, the KIDNEY_L (3 h) was 0.9 g, the KIDNEY_R (3 h) was 0.9 g and the KIDNEY_TOTAL (3 h) was 1.9 g. It also gave an LIVER (3 h) of 8.9 g, an A/G (3 h) of 2.3 and an ALP (3 h) of 713.6 IU/L. For the same molecule, the ALT (3 h) was 40 IU/L, the AST (3 h) was 69.4 IU/L and the BUN (3 h) was 12 mg/dL. For the same molecule, the CRE (3 h) was 0.5 mg/dL, the Ca (3 h) was 11.1 mg/dL and the Cl (3 h) was 104 meq/L. It also gave a DBIL (3 h) of 0.036 mg/dL, a GLC (3 h) of 179.8 mg/dL and an IP (3 h) of 10.7 mg/dL. The K (3 h) was 4.9 meq/L, the LDH (3 h) was 84.2 IU/L and the Na (3 h) was 137.4 meq/L. The PL (3 h) was 127.8 mg/dL, the RALB (3 h) was 3.8 g/dL and the TBIL (3 h) was 0.4 mg/dL. For the same molecule, the TC (3 h) was 73.8 mg/dL, the TG (3 h) was 38 mg/dL and the TP (3 h) was 5.4 g/dL. For the same molecule, the gamma-GTP (3 h) was 1.2 IU/L, the TERMINAL_BW (6 h) was 184.5 g and the APTT (6 h) was 16.5 s. It also gave a Bas (6 h) of 0%, an Eos (6 h) of 0.6% and a Fbg (6 h) of 199.6 mg/dL. For the same molecule, the Hb (6 h) was 13.2 g/dL, the Ht (6 h) was 39.9% and the Lym (6 h) was 80.2%. The MCH (6 h) was 21.9 pg, the MCHC (6 h) was 33.2% and the MCV (6 h) was 66 fL. For the same molecule, the Mono (6 h) was 5.2%, the Neu (6 h) was 14.4% and the PT (6 h) was 12.1 s. The Plat (6 h) was 107 x10_4/uL, the RBC (6 h) was 607.2 x10_4/ul and the Ret (6 h) was 10.1%. The WBC (6 h) was 95.2 x10_2/uL, the KIDNEY_L (6 h) was 0.9 g and the KIDNEY_R (6 h) was 0.9 g. The KIDNEY_TOTAL (6 h) was 1.7 g, the LIVER (6 h) was 8.3 g and the A/G (6 h) was 2.2. The ALP (6 h) was 880.4 IU/L, the ALT (6 h) was 36.2 IU/L and the AST (6 h) was 69.6 IU/L. For the same molecule, the BUN (6 h) was 12.2 mg/dL, the CRE (6 h) was 0.4 mg/dL and the Ca (6 h) was 10.8 mg/dL. For the same molecule, the Cl (6 h) was 106 meq/L, the DBIL (6 h) was 0.02 mg/dL and the GLC (6 h) was 175.6 mg/dL. The IP (6 h) was 10.3 mg/dL, the K (6 h) was 5.1 meq/L and the LDH (6 h) was 85.2 IU/L. For the same molecule, the Na (6 h) was 137 meq/L, the PL (6 h) was 139 mg/dL and the RALB (6 h) was 3.6 g/dL. For the same molecule, the TBIL (6 h) was 0.3 mg/dL, the TC (6 h) was 82.2 mg/dL and the TG (6 h) was 32.4 mg/dL. The TP (6 h) was 5.3 g/dL, the gamma-GTP (6 h) was 1.6 IU/L and the TERMINAL_BW (9 h) was 181.6 g. It also gave an APTT (9 h) of 16.5 s, a Bas (9 h) of 0% and an Eos (9 h) of 0.4%. The Fbg (9 h) was 210.6 mg/dL, the Hb (9 h) was 12.9 g/dL and the Ht (9 h) was 39.4%. For the same molecule, the Lym (9 h) was 81.8%, the MCH (9 h) was 21.8 pg and the MCHC (9 h) was 32.8%. It also gave an MCV (9 h) of 66.4 fL, a Mono (9 h) of 5.8% and a Neu (9 h) of 11.6%. For the same molecule, the PT (9 h) was 12.2 s, the Plat (9 h) was 102.3 x10_4/uL and the RBC (9 h) was 592.8 x10_4/ul. It also gave a Ret (9 h) of 9.5%, a WBC (9 h) of 93.6 x10_2/uL and a KIDNEY_L (9 h) of 0.9 g. The KIDNEY_R (9 h) was 0.9 g, the KIDNEY_TOTAL (9 h) was 1.7 g and the LIVER (9 h) was 7.5 g. The A/G (9 h) was 2.2, the ALP (9 h) was 861 IU/L and the ALT (9 h) was 32.8 IU/L. The AST (9 h) was 64 IU/L, the BUN (9 h) was 13.2 mg/dL and the CRE (9 h) was 0.4 mg/dL. It also gave a Ca (9 h) of 10.5 mg/dL, a Cl (9 h) of 105.8 meq/L and a DBIL (9 h) of 0.022 mg/dL. It also gave a GLC (9 h) of 176.8 mg/dL, an IP (9 h) of 10.5 mg/dL and a K (9 h) of 5.1 meq/L. It also gave an LDH (9 h) of 93.8 IU/L, a Na (9 h) of 138.4 meq/L and a PL (9 h) of 126.6 mg/dL. It also gave an RALB (9 h) of 3.8 g/dL, a TBIL (9 h) of 0.3 mg/dL and a TC (9 h) of 73.4 mg/dL. It also gave a TG (9 h) of 26 mg/dL, a TP (9 h) of 5.5 g/dL and a gamma-GTP (9 h) of 1.8 IU/L. It also gave a TERMINAL_BW (24 h) of 196.8 g, an APTT (24 h) of 16.4 s and a Bas (24 h) of 0%. It also gave an Eos (24 h) of 0.5%, a Fbg (24 h) of 218 mg/dL and a Hb (24 h) of 13.5 g/dL. For the same molecule, the Ht (24 h) was 41.6%, the Lym (24 h) was 84% and the MCH (24 h) was 22 pg. It also gave an MCHC (24 h) of 32.4%, an MCV (24 h) of 67.9 fL and a Mono (24 h) of 8.5%. For the same molecule, the Neu (24 h) was 7.2%, the PT (24 h) was 11.9 s and the Plat (24 h) was 105.1 x10_4/uL. For the same molecule, the RBC (24 h) was 614 x10_4/ul, the Ret (24 h) was 10.3% and the WBC (24 h) was 88.6 x10_2/uL. For the same molecule, the KIDNEY_L (24 h) was 0.9 g, the KIDNEY_R (24 h) was 0.9 g and the KIDNEY_TOTAL (24 h) was 1.8 g. It also gave an LIVER (24 h) of 9.1 g, an A/G (24 h) of 2.1 and an ALP (24 h) of 914 IU/L. It also gave an ALT (24 h) of 34 IU/L, an AST (24 h) of 64.8 IU/L and a BUN (24 h) of 17.8 mg/dL. It also gave a CRE (24 h) of 0.5 mg/dL, a Ca (24 h) of 11.4 mg/dL and a Cl (24 h) of 104.8 meq/L. It also gave a DBIL (24 h) of 0 mg/dL, a GLC (24 h) of 188.5 mg/dL and an IP (24 h) of 10 mg/dL. The K (24 h) was 5.2 meq/L, the LDH (24 h) was 97.8 IU/L and the Na (24 h) was 140.8 meq/L. For the same molecule, the PL (24 h) was 154.2 mg/dL, the RALB (24 h) was 3.9 g/dL and the TBIL (24 h) was 0.3 mg/dL. It also gave a TC (24 h) of 86.5 mg/dL, a TG (24 h) of 66.2 mg/dL and a TP (24 h) of 5.8 g/dL. The gamma-GTP (24 h) was 1 IU/L.
